{
  "source": "patent US20010056087A1",
  "about": "“Use of 5alpha-androst-1en-3,17-diol to increase the level of the anabolic/androgenic hormone 17beta-hydroxy-5alpha-androst-1-en-3-one in humans” (priority 2000, published 2001)",
  "origin": "cited, not measured here",
  "conditions": "One hundred mg given orally to men",
  "data": [
    {"smiles": "C[C@]12C=CC(=O)C[C@@H]1CC[C@@H]1[C@@H]2CC[C@]2(C)C(=O)CC[C@@H]12", "note": "[1-androstenedione, 5alpha-androst-1-en-3,17-dione]", "values": [
      {"measurement": "excretion of 17beta-hydroxy-5alpha-androst-1-en-3-one in the urine (in-vivo conversion)", "result": "considerable excretion of 17beta-hydroxy-5alpha-androst-1-en-3-one in the urine"}
    ]}
  ]
}
